# Key:
# [1] = system: Arabidopsis plants, construct hemG_tpFNR (SEQ ID NO 117); assay: Tolerance of transgenic T1 Arabidopsis plants to herbicides, greenhouse (Tolerance Factor); assay type: in vivo, Arabidopsis thaliana
# [2] = system: Arabidopsis plants, construct hemG_tpsAMATU_PPO2 (SEQ ID NO 119); assay: as above; assay type: in vivo, Arabidopsis thaliana
# [3] = system: Arabidopsis plants, construct hemG_tplAMATU_PPO2 (SEQ ID NO 118); assay: as above; assay type: in vivo, Arabidopsis thaliana
# [4] = system: Arabidopsis plants, construct hemF_tpFNR (SEQ ID NO 114); assay: as above; assay type: in vivo, Arabidopsis thaliana
# [5] = system: Arabidopsis plants, construct hemF_tpsAMATU_PPO2 (SEQ ID NO 116); assay: as above; assay type: in vivo, Arabidopsis thaliana
# [6] = system: Arabidopsis plants, construct hemF_tplAMATU_PPO2 (SEQ ID NO 115); assay: as above; assay type: in vivo, Arabidopsis thaliana
# [7] = system: Arabidopsis plants, construct RHOMA_PPO_wt_tpFNR (SEQ ID NO 123); assay: as above; assay type: in vivo, Arabidopsis thaliana
# [8] = system: Arabidopsis plants, construct RHOMA_PPO_wt_tpAMATU_PPO2 (SEQ ID NO 127); assay: as above; assay type: in vivo, Arabidopsis thaliana
# [9] = system: Arabidopsis plants, construct RHOMA_PPO_F420V_tpFNR (SEQ ID NO 124); assay: as above; assay type: in vivo, Arabidopsis thaliana
# [10] = system: Arabidopsis plants, construct OPITE_PPO_wt_tpFNR (SEQ ID NO 121); assay: as above; assay type: in vivo, Arabidopsis thaliana
# [11] = system: Arabidopsis plants, construct CHLSP_PPO_wt_tpFNR (SEQ ID NO 128); assay: as above; assay type: in vivo, Arabidopsis thaliana
# [12] = system: Wildtype/non-transgenic Arabidopsis thaliana; assay: Herbicide injury evaluation of Arabidopsis plants, greenhouse; assay type: in vivo; details: scale 0-100
# [13] = system: transgenic Arabidopsis thaliana, transgene SEQ ID NO 119; assay: as above; assay type: in vivo; details: Table 3, scale 0-100
# [14] = system: transgenic Arabidopsis thaliana, transgene SEQ ID NO 117; assay: as above; assay type: in vivo; details: Table 3, scale 0-100
# [15] = system: transgenic Arabidopsis thaliana, transgene SEQ ID NO 118; assay: as above; assay type: in vivo; details: scale 0-100
# [16] = system: transgenic Arabidopsis thaliana, transgene SEQ ID NO 121; assay: as above; assay type: in vivo; details: Table 3, scale 0-100
# [17] = system: transgenic Arabidopsis thaliana, transgene SEQ ID NO 128; assay: as above; assay type: in vivo; details: Table 3, scale 0-100
# [18] = system: transgenic Arabidopsis thaliana, transgene SEQ ID NO 120; assay: as above; assay type: in vivo; details: Table 4, scale 0-100
# [19] = system: empty vector-transformed leaf discs; assay: PSII yield inhibition in tobacco leaf discs (chlorophyll fluorescence, imaging PAM); assay type: cell-based; details: Nicotiana benthamiana, 48 h, read-out: IC50 of PSII yield inhibition
smiles,measurement,setting,value
"CC(C)N(C)S(=O)(=O)NC(=O)c1cc(-n2c(=O)cc(C(F)(F)F)n(C)c2=O)c(F)cc1Cl [Saflufenacil, saflufenacil]",Tolerance Factor,[1],332
same,Tolerance Factor,[2],1
same,Tolerance Factor,[3],2200
same,Tolerance Factor,[4],1
same,Tolerance Factor,[5],1
same,Tolerance Factor,[6],1
same,Tolerance Factor,[7],1
same,Tolerance Factor,[8],1
same,Tolerance Factor,[9],1
same,Tolerance Factor,[10],14
same,Tolerance Factor,[11],640
same,Herbicide injury evaluation 14 days after herbicide treatment,"[12]; Table 3, 50 g ai/ha + 1% MSO",100
same,Herbicide injury evaluation 14 days after herbicide treatment,"[12]; Table 3, 150 g ai/ha + 1% MSO",100
same,Herbicide injury evaluation 14 days after herbicide treatment,"[12]; Table 3, 300 g ai/ha + 1% MSO",100
same,Herbicide injury evaluation 14 days after herbicide treatment,"[12]; Table 4, 50 g ai/ha + 1% MSO",100
same,Herbicide injury evaluation 14 days after herbicide treatment,"[12]; Table 4, 150 g ai/ha + 1% MSO",100
same,Herbicide injury evaluation 14 days after herbicide treatment,"[12]; Table 4, 300 g ai/ha + 1% MSO",100
same,Herbicide injury evaluation 14 days after herbicide treatment,"[13]; SEQ ID NO 119 A, 50 g ai/ha + 1% MSO",100
same,Herbicide injury evaluation 14 days after herbicide treatment,"[13]; SEQ ID NO 119 A, 150 g ai/ha + 1% MSO",100
same,Herbicide injury evaluation 14 days after herbicide treatment,"[13]; SEQ ID NO 119 A, 300 g ai/ha + 1% MSO",100
same,Herbicide injury evaluation 14 days after herbicide treatment,"[13]; SEQ ID NO 119 B, 50 g ai/ha + 1% MSO",100
same,Herbicide injury evaluation 14 days after herbicide treatment,"[13]; SEQ ID NO 119 B, 150 g ai/ha + 1% MSO",100
same,Herbicide injury evaluation 14 days after herbicide treatment,"[13]; SEQ ID NO 119 B, 300 g ai/ha + 1% MSO",100
same,Herbicide injury evaluation 14 days after herbicide treatment,"[14]; SEQ ID NO 117 C, 50 g ai/ha + 1% MSO",100
same,Herbicide injury evaluation 14 days after herbicide treatment,"[14]; SEQ ID NO 117 C, 150 g ai/ha + 1% MSO",98
same,Herbicide injury evaluation 14 days after herbicide treatment,"[14]; SEQ ID NO 117 C, 300 g ai/ha + 1% MSO",97
same,Herbicide injury evaluation 14 days after herbicide treatment,"[14]; SEQ ID NO 117 I, 50 g ai/ha + 1% MSO",94
same,Herbicide injury evaluation 14 days after herbicide treatment,"[14]; SEQ ID NO 117 I, 150 g ai/ha + 1% MSO",99
same,Herbicide injury evaluation 14 days after herbicide treatment,"[14]; SEQ ID NO 117 I, 300 g ai/ha + 1% MSO",95
same,Herbicide injury evaluation 14 days after herbicide treatment,"[15]; Table 3, SEQ ID NO 118 Q, 50 g ai/ha + 1% MSO",55
same,Herbicide injury evaluation 14 days after herbicide treatment,"[15]; Table 3, SEQ ID NO 118 Q, 150 g ai/ha + 1% MSO",58
same,Herbicide injury evaluation 14 days after herbicide treatment,"[15]; Table 3, SEQ ID NO 118 Q, 300 g ai/ha + 1% MSO",68
same,Herbicide injury evaluation 14 days after herbicide treatment,"[15]; Table 3, SEQ ID NO 118 R, 50 g ai/ha + 1% MSO",5
same,Herbicide injury evaluation 14 days after herbicide treatment,"[15]; Table 3, SEQ ID NO 118 R, 150 g ai/ha + 1% MSO",65
same,Herbicide injury evaluation 14 days after herbicide treatment,"[15]; Table 3, SEQ ID NO 118 R, 300 g ai/ha + 1% MSO",48
same,Herbicide injury evaluation 14 days after herbicide treatment,"[15]; Table 4, SEQ ID NO 118 Q, 50 g ai/ha + 1% MSO",63
same,Herbicide injury evaluation 14 days after herbicide treatment,"[15]; Table 4, SEQ ID NO 118 Q, 150 g ai/ha + 1% MSO",63
same,Herbicide injury evaluation 14 days after herbicide treatment,"[15]; Table 4, SEQ ID NO 118 Q, 300 g ai/ha + 1% MSO",65
same,Herbicide injury evaluation 14 days after herbicide treatment,"[15]; Table 4, SEQ ID NO 118 R, 50 g ai/ha + 1% MSO",38
same,Herbicide injury evaluation 14 days after herbicide treatment,"[15]; Table 4, SEQ ID NO 118 R, 150 g ai/ha + 1% MSO",45
same,Herbicide injury evaluation 14 days after herbicide treatment,"[15]; Table 4, SEQ ID NO 118 R, 300 g ai/ha + 1% MSO",60
same,Herbicide injury evaluation 14 days after herbicide treatment,"[16]; SEQ ID NO 121 G, 50 g ai/ha + 1% MSO",100
same,Herbicide injury evaluation 14 days after herbicide treatment,"[16]; SEQ ID NO 121 G, 150 g ai/ha + 1% MSO",100
same,Herbicide injury evaluation 14 days after herbicide treatment,"[16]; SEQ ID NO 121 G, 300 g ai/ha + 1% MSO",100
same,Herbicide injury evaluation 14 days after herbicide treatment,"[16]; SEQ ID NO 121 H, 50 g ai/ha + 1% MSO",100
same,Herbicide injury evaluation 14 days after herbicide treatment,"[16]; SEQ ID NO 121 H, 150 g ai/ha + 1% MSO",100
same,Herbicide injury evaluation 14 days after herbicide treatment,"[16]; SEQ ID NO 121 H, 300 g ai/ha + 1% MSO",100
same,Herbicide injury evaluation 14 days after herbicide treatment,"[17]; SEQ ID NO 128 D, 50 g ai/ha + 1% MSO",93
same,Herbicide injury evaluation 14 days after herbicide treatment,"[17]; SEQ ID NO 128 D, 150 g ai/ha + 1% MSO",97
same,Herbicide injury evaluation 14 days after herbicide treatment,"[17]; SEQ ID NO 128 D, 300 g ai/ha + 1% MSO",97
same,Herbicide injury evaluation 14 days after herbicide treatment,"[17]; SEQ ID NO 128 E, 50 g ai/ha + 1% MSO",97
same,Herbicide injury evaluation 14 days after herbicide treatment,"[17]; SEQ ID NO 128 E, 150 g ai/ha + 1% MSO",97
same,Herbicide injury evaluation 14 days after herbicide treatment,"[17]; SEQ ID NO 128 E, 300 g ai/ha + 1% MSO",97
same,Herbicide injury evaluation 14 days after herbicide treatment,"[18]; SEQ ID NO 120 J, 50 g ai/ha + 1% MSO",80
same,Herbicide injury evaluation 14 days after herbicide treatment,"[18]; SEQ ID NO 120 J, 150 g ai/ha + 1% MSO",83
same,Herbicide injury evaluation 14 days after herbicide treatment,"[18]; SEQ ID NO 120 J, 300 g ai/ha + 1% MSO",85
same,Herbicide injury evaluation 14 days after herbicide treatment,"[18]; SEQ ID NO 120 M, 50 g ai/ha + 1% MSO",95
same,Herbicide injury evaluation 14 days after herbicide treatment,"[18]; SEQ ID NO 120 M, 150 g ai/ha + 1% MSO",93
same,Herbicide injury evaluation 14 days after herbicide treatment,"[18]; SEQ ID NO 120 M, 300 g ai/ha + 1% MSO",88
same,IC50,[19],110 nM
